Assay results reported in ChEMBL document CHEMBL1201862, “PubChem BioAssay data set” (2004).
Calls of active or inactive are those of the source.

Tests used:
Beta Lactamase = Beta Lactamase (Pseudomonas aeruginosa, UniProt Q932Y6); experiment: beta-lactamase reporter inhibitor potency, dose response, artefact control for TLR9-MyD88 binding inhibitor project, BLA reporter cells, FRET fluorescence (AID 588341); assay type: cell-based;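 further: cell based assay in CHO-K1 cells stably expressing beta-lactamase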
[1] = HepG2 cell cytotoxicity, dose response, cytotoxicity control for Shn3 inhibitor project, CellTiter-Glo, cherry-picked (AID 624134); assay type: functional, cell-based
Fatty acid synthase = Fatty acid synthase (Homo sapiens, UniProt P49327); experiment: FAS thioesterase domain inhibitors, dose response, biochemical, kinetic fluorescence intensity (AID 624326); assay type: functional;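 further: rate of fluorescence rise from hydrolysis of a fluorogenic O-methyl fluorescein ester substrate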
[2] = target: T1, Apoptotic protease-activating factor 1 (Homo sapiens, UniProt O14727); assay type: functional
T1 sequence (O14727 whole entry): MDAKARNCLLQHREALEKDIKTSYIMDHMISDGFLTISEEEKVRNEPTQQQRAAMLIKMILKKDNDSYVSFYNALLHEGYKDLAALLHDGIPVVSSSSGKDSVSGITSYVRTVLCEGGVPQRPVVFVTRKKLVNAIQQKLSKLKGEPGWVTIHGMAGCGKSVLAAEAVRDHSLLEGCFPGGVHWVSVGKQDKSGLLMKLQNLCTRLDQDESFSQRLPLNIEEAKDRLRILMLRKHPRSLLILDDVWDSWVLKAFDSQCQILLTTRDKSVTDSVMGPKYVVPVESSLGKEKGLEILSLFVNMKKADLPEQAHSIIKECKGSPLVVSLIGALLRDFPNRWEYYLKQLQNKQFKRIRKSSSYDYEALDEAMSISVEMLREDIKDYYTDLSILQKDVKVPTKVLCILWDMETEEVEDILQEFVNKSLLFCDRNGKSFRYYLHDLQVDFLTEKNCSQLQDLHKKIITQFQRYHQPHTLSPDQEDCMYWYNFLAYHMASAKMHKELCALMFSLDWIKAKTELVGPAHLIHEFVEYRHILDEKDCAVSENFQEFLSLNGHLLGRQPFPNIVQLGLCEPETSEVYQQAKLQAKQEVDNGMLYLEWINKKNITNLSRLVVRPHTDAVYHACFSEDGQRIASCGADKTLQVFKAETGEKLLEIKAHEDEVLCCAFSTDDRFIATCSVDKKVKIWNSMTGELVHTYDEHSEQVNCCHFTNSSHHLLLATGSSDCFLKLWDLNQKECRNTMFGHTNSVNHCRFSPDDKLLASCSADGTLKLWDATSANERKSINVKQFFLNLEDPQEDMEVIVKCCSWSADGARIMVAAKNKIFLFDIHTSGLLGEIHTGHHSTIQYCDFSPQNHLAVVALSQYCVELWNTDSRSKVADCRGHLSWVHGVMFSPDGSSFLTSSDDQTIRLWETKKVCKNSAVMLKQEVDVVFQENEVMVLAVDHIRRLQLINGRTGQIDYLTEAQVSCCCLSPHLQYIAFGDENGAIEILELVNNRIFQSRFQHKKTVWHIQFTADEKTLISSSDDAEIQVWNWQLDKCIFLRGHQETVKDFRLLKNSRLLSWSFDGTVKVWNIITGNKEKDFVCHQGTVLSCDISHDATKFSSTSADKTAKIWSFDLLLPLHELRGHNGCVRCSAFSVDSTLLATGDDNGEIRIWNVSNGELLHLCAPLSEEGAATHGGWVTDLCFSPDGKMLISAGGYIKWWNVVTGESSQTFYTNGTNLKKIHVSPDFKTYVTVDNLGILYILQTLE

Nonstructural protein 1 = Nonstructural protein 1 (Influenza A virus, UniProt Q194T2); assay type: functional, Influenza A virus (A/California/07/2009(H1N1))
Nonstructural protein 1, sequence (Q194T2 whole entry): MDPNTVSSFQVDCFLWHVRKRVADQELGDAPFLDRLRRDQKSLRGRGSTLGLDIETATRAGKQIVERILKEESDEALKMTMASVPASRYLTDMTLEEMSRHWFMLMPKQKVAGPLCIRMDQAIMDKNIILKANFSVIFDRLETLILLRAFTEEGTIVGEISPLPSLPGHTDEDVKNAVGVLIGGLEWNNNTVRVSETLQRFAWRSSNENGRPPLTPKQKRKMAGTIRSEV

Beta Lactamase, sequence (Q932Y6 whole entry): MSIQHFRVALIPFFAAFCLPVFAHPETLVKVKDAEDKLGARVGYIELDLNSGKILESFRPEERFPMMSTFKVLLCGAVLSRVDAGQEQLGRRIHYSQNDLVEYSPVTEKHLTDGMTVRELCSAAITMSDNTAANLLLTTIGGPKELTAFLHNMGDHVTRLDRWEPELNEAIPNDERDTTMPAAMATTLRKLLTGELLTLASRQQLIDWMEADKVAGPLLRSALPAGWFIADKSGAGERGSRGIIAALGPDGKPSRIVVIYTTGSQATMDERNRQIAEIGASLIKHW
Fatty acid synthase, sequence (P49327 whole entry, the tested form may be a part): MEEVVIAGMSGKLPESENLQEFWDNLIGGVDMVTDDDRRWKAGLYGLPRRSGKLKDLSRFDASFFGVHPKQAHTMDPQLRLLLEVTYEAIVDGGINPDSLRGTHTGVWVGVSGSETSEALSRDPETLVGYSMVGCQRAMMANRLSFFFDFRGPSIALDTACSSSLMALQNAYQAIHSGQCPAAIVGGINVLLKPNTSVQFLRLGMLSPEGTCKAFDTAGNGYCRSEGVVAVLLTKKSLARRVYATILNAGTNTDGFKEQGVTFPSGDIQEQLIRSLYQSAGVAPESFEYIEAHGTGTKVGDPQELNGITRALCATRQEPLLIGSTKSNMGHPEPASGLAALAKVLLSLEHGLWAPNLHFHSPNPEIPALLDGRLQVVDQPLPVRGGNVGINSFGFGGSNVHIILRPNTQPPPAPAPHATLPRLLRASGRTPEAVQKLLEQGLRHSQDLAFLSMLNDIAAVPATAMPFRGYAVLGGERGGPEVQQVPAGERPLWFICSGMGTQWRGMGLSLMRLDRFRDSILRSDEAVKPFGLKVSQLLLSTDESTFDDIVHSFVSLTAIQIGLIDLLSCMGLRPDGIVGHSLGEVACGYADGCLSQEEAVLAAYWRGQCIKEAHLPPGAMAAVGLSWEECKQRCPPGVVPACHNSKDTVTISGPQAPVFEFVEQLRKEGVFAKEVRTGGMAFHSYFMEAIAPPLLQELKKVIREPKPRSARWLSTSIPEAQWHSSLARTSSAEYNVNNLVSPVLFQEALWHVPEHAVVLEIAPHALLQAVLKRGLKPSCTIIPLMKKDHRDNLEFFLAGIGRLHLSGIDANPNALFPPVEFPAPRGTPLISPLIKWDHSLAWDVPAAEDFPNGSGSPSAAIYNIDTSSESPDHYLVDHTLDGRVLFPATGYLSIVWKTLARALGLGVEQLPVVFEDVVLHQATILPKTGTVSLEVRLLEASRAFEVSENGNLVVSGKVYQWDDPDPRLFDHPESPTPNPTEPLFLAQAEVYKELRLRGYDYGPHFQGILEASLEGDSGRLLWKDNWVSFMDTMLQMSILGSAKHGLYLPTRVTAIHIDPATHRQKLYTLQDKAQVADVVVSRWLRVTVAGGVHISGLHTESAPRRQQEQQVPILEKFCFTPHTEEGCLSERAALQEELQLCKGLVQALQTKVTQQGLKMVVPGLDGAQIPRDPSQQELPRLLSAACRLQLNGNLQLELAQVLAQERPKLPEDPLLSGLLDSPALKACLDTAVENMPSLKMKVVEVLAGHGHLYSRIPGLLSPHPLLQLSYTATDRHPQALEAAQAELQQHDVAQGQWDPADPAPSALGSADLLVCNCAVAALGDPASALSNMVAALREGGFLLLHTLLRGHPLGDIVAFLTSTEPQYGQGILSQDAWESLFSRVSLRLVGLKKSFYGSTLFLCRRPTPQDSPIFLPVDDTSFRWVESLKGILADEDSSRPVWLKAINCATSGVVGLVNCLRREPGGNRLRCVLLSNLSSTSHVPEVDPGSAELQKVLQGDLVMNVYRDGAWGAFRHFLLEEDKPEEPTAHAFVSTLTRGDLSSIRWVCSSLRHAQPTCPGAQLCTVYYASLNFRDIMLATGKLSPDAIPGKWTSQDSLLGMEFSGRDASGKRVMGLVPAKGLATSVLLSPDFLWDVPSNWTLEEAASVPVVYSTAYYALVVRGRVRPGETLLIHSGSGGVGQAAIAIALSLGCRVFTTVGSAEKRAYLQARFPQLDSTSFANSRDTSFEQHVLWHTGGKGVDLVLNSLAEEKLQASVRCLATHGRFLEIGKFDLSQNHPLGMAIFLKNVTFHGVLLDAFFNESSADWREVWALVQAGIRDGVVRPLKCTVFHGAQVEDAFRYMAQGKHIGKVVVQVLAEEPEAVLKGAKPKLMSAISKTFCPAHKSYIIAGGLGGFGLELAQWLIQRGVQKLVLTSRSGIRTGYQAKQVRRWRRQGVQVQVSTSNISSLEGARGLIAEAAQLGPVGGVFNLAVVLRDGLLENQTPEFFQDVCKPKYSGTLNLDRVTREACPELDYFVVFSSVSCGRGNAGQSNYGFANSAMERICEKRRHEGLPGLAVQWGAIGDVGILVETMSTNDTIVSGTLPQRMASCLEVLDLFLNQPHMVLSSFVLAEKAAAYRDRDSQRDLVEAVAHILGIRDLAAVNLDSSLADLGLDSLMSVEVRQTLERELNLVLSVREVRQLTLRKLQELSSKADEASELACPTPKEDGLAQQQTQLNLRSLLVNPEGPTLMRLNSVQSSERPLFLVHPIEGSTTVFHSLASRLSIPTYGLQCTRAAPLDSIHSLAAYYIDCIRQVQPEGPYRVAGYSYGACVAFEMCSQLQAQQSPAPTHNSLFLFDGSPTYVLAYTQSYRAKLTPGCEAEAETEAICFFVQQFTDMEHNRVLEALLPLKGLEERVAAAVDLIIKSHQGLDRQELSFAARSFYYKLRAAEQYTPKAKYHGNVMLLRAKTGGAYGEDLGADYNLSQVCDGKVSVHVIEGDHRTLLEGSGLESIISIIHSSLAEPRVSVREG

CCC1CCCCN1S(=O)(=O)c1ccc(NC(=O)c2nc(S(C)(=O)=O)ncc2Cl)cc1 (stereo not given)
IC50 (Beta Lactamase): 11.1 µM (inactive)
AC50 [1]: 17 µM (active)
IC50 (Fatty acid synthase): 4.03 µM (active)

CCCC[n+]1ccn(C2=C([N-]S(=O)(=O)c3ccc(Cl)cc3)C(=O)c3ccccc3C2=O)c1
IC50 [2]: 19.3 µM (active)

CC(=O)c1cccc2c1N=C(c1[nH]c3ccccc3c1O)C2=O
IC50 (Nonstructural protein 1): 13.9 µM (active)
